The target of data set [1] is T1, Thromboxane A2 receptor (Homo sapiens, UniProt P21731).
T1 sequence (P21731 whole entry): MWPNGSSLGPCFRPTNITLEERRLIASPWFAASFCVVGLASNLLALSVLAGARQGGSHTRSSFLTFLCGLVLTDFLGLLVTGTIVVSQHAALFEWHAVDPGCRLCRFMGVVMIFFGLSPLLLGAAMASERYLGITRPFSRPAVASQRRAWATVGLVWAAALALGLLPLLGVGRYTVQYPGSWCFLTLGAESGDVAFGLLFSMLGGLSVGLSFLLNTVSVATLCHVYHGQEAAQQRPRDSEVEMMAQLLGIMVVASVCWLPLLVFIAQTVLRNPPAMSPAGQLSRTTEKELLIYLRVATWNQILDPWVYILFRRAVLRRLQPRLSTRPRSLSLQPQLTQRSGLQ
Put plainly: In vitro thromboxane A2 receptor antagonism through inhibition of U-46619 induced platelet aggregation in human whole blood. It is filed as functional, tissue-based. Particulars: read-out: pA2 (converted).

In another data set the target is T2, Thromboxane-A synthase (Homo sapiens, UniProt P24557).
T2 sequence (P24557 whole entry): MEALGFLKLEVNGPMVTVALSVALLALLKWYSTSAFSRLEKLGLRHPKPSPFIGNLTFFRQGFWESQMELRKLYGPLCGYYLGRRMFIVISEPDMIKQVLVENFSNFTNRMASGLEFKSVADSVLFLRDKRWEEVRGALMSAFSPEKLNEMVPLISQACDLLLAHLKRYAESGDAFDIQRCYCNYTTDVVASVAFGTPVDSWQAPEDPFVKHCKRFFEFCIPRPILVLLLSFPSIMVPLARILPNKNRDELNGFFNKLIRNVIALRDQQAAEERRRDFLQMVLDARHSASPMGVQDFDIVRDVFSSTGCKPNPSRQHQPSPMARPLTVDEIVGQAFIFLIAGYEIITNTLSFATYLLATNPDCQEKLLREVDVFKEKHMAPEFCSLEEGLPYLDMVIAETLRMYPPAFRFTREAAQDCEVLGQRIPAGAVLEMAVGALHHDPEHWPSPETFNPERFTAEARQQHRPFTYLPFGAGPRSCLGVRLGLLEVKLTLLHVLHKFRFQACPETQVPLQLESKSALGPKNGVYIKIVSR
Put plainly: In vitro inhibition of collagen-induced thromboxane A2 production in human whole blood. Format: functional, tissue-based.

In data set [2] the target is T3, Thromboxane A2 receptor (Rattus norvegicus, UniProt P34978).
T3 sequence (P34978 whole entry): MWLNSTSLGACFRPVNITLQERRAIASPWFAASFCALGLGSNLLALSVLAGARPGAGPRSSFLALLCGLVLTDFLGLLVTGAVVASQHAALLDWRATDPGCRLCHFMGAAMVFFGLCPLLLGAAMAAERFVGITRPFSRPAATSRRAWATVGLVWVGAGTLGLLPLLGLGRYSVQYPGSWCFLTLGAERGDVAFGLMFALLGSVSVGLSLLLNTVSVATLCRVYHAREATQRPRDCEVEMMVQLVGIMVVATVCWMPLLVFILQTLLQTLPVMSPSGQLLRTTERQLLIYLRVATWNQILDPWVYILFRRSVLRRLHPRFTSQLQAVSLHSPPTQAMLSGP
Put plainly: In vitro thromboxane A2 receptor antagonism through inhibition of U-46619 induced contraction of rat isolated thoracic aortic strip. It is filed as functional. Particulars: read-out: pA2 (converted).

The nature of data set [3]: The half life period was determined. Format: ADME.
Data set [4] deals with Canis familiaris. Put plainly: Tested ex vivo for the percent inhibition of serum TXA2 production with collagen-induced platelet aggregation in conscious dog at dosage of 10 mg/kg for 12 to 24 h. It is filed as functional. Particulars: Canis lupus familiaris.
Data set [5] concerns Canis familiaris. Put plainly: Tested ex vivo for the percent inhibition of serum TXA2 production with collagen-induced platelet aggregation in anasthetised dog after administration at a dose of 10 ug/kg/min. It is filed as functional. To be noted: Canis lupus familiaris.

A value given as a limit tells only on which side of the number the result lay.

What is called IC50 is the midpoint of a concentration-inhibition curve. Read a low IC50 as inhibition by little substance. As to `O=C(O)CCC/C=C(/c1cccnc1)c1cccc(CCNS(=O)(=O)c2ccccc2)c1`, the Kb at Thromboxane A2 receptor [1] was 0.794 µM; on Thromboxane A2 receptor [2], 0.0158 µM. In addition, at Thromboxane-A synthase, it took 0.0501 µM to reach half-maximal inhibition (IC50).

With `O=C(O)CCC/C=C(/c1cccnc1)c1cccc(CCCNS(=O)(=O)c2ccccc2)c1`, the Kb on Thromboxane A2 receptor [1] is 1 µM; on Thromboxane A2 receptor [2] it was 0.126 µM. The compound also gave an IC50 against Thromboxane-A synthase of 0.0501 µM.

In the case of `O=C(O)CO/N=C(/c1cccnc1)c1cccc(CCNS(=O)(=O)c2ccc(I)cc2)c1`, the Kb was 0.2 µM on Thromboxane A2 receptor [1] and 0.00158 µM on Thromboxane A2 receptor [2]. On Thromboxane-A synthase, this compound had an IC50 of over 1 µM.

`O=C(O)CCC/C=C(/c1cccnc1)c1cccc(CCNS(=O)(=O)c2ccc([N+](=O)[O-])cc2)c1`: the Kb at Thromboxane A2 receptor [1] is 0.631 µM; on Thromboxane A2 receptor [2], 0.00398 µM. Moreover, on Thromboxane-A synthase, the IC50 was 0.0398 µM.

Regarding `O=C(O)CCC/C=C(/c1cccnc1)c1cccc(CCNS(=O)(=O)c2ccc(Cl)c(Cl)c2)c1`, the Kb at Thromboxane A2 receptor [1] is 0.316 µM; at Thromboxane A2 receptor [2], 0.0631 µM. In addition, it took 0.0631 µM to reach half-maximal inhibition against Thromboxane-A synthase (IC50).

As for `O=C(O)CCCC/C=C(/c1cccnc1)c1cccc(CCNS(=O)(=O)c2ccc(I)cc2)c1`, the Kb at Thromboxane A2 receptor [1] is 0.794 µM; at Thromboxane A2 receptor [2], 0.01 µM. Besides, the IC50 at Thromboxane-A synthase was 0.02 µM.

One may read the half-life as the time needed for the level to fall by half in the phase considered. Consider `O=C(O)CCCCO/N=C(/c1cccnc1)c1cccc(CCNS(=O)(=O)c2ccc(I)cc2)c1`, for which, in data set [3], the half-life is under 30 min. For the same compound, the results for the Kb at Thromboxane A2 receptor [1] and at Thromboxane A2 receptor [2] were 2 µM and 0.2 µM, respectively. For the same compound, the IC50 against Thromboxane-A synthase is 0.2 µM.

By inhibition in vivo is commonly meant how much of the control response was suppressed. A low value points to a response near the control. For `CC(C)(CNS(=O)(=O)c1ccc(I)cc1)c1cccc(/C(=C\CCCC(=O)O)c2cccnc2)c1`, the inhibition in vivo at 10 mg/kg in the data set with Canis familiaris [4] was over 90%. In addition, in the data set on Canis familiaris [5], the inhibition in vivo at 10 µg/kg/min is over 98%. Further, the Kb was 0.2 µM on Thromboxane A2 receptor [1] and 0.000631 µM at Thromboxane A2 receptor [2]. The IC50 against Thromboxane-A synthase was 0.0316 µM.

For `O=C(O)CCC/C=C(/c1cccnc1)c1cccc(CCNS(=O)(=O)c2ccccc2[N+](=O)[O-])c1`, the figures for the Kb on Thromboxane A2 receptor [1] and at Thromboxane A2 receptor [2] were 1 µM and 0.2 µM, respectively. The compound further showed an IC50 against Thromboxane-A synthase of 0.0501 µM.

On to `O=C(O)CCCO/N=C(/c1cccnc1)c1cccc(CCNS(=O)(=O)c2ccc(I)cc2)c1`, for which, in data set [3], the half-life was under 30 min. Also, the figures for the Kb on Thromboxane A2 receptor [1] and on Thromboxane A2 receptor [2] were 1.58 µM and 0.0126 µM, respectively. Moreover, on Thromboxane-A synthase, 0.2 µM corresponded to half-maximal inhibition (IC50).

As to `O=C(O)CCC/C=C(/c1cccnc1)c1cccc(CCNS(=O)(=O)c2ccc(F)cc2)c1`, the figures for the Kb on Thromboxane A2 receptor [1] and on Thromboxane A2 receptor [2] were 0.794 µM and 0.0251 µM, respectively. The compound also had an IC50 at Thromboxane-A synthase of 0.0316 µM.

With `O=C(O)CCC/C=C(/c1cccnc1)c1cccc(CCNS(=O)(=O)c2ccc(I)cc2)c1`, the inhibition in vivo at 10 µg/kg/min in the data set on Canis familiaris [5] is over 98%. In addition, the Kb at Thromboxane A2 receptor [1] was 0.631 µM; at Thromboxane A2 receptor [2], 0.001 µM. The same compound had a half-inhibitory concentration (IC50) against Thromboxane-A synthase of 0.0316 µM.

`O=C(O)CCO/N=C(/c1cccnc1)c1cccc(CCNS(=O)(=O)c2ccc(I)cc2)c1` gave a half-life in data set [3] of under 30 min. The values for the Kb on Thromboxane A2 receptor [1] and at Thromboxane A2 receptor [2] were 0.1 µM and 0.000631 µM, respectively. The same compound gave an IC50 against Thromboxane-A synthase of 0.501 µM.

As to `O=C(O)CCCCO/N=C(/c1cccnc1)c1cccc(C(F)(F)F)c1` [RIDOGREL], the half-life in data set [3] is under 30 min.

Compound `CC(C)(CNS(=O)(=O)c1ccc(I)cc1)c1cccc(/C(=N\OCCC(=O)O)c2cccnc2)c1` returned a half-life in data set [3] of under 30 min. In addition, the Kb on Thromboxane A2 receptor [1] was 0.316 µM; on Thromboxane A2 receptor [2] it was 0.002 µM. In addition, half-maximal inhibition at Thromboxane-A synthase (IC50) required 0.2 µM.

Regarding `O=C(O)CC/C=C(/c1cccnc1)c1cccc(CCNS(=O)(=O)c2ccccc2)c1`, the Kb was 7.94 µM on Thromboxane A2 receptor [1] and 0.0316 µM at Thromboxane A2 receptor [2]. Moreover, on Thromboxane-A synthase, the IC50 is 0.0794 µM.

(Values after ChEMBL document CHEMBL1125966, “Synthesis and pharmacological evaluation of combined thromboxane receptor antagonist/synthase inhibitors: pyridine-containing sulphonamido acids” (Bioorg Med Chem Lett, 1991).)
